Earlier results in US10006071B2, “Methods to control secretion of metabolic byproducts in algae to enhance recovery of said byproducts” (Institute for Systems Biology, priority 2010, dated 2018).
Read-outs that look alike come from different tables or passages of the source. Residues, ends and D or L forms follow the SMILES beside them. *: point of attachment. Cbz = O=C(OCc1ccccc1)*; CH2F = FC*

Columns and labels:
[1] = tested on: caspase-3
[2] = tested on: Caspase-1
[3] = tested on: Caspase-8
[4] = tested on: Caspase-9
[5] = tested on: Caspase-6
[6] = tested on: Metacaspase
[7] = tested on: apoptosis
[8] = tested on: metacaspase

Row | SMILES | inhibition of caspase-3 [1] | inhibition of caspase-1 [2] | inhibition of caspase-8 [3] | inhibition of caspase-9 [4] | inhibition of caspase-6 [5] | inhibition of metacaspase [6] | effect on apoptosis [7] | other results
1 | CC(=O)N[C@@H](Cc1ccc(O)cc1)C(=O)N[C@@H](CCC(=O)O)C(=O)N[C@H](C(=O)N[C@@H](CC(=O)O)C(=O)CCl)C(C)C [Ac-YEVD-CMK] (HELM PEPTIDE1{[ac].Y.E.V.D.[ClC[*:1]]}$$$$V2.0) | inhibit | inhibited | inhibited | inhibited | inhibited |  |  | 
2 | CC(=O)N[C@@H](CC(=O)O)C(=O)N[C@@H](CCC(=O)O)C(=O)N[C@H](C(=O)N[C@H](C=O)CC(=O)O)C(C)C [AcDEVD-CHO] |  |  |  |  |  | inhibited |  | inhibition of caspase-3 ([1]; Chlorella saccharophila): inhibit
3 | O=C(O)CN(CCN(CC(=O)O)CC(=O)O)CCN(CC(=O)O)CC(=O)O [DTPA, diethylene triamine pentaacetic acid] |  |  |  |  |  |  | permits apoptosis to occur | 
4 | c1ccc(CN(CCN(Cc2ccccn2)Cc2ccccn2)Cc2ccccn2)nc1 [TPEN, N,N,N′,N′-tetrakis(2-pyridylmethyl)ethylenediamine] |  |  |  |  |  |  | permits apoptosis to occur | 
5 | COC(=O)CC[C@H](NC(=O)[C@H](CC(=O)OC)NC(=O)OCc1ccccc1)C(=O)N[C@H](C(=O)N[C@@H](CC(=O)OC)C(=O)CF)C(C)C [Z-DEVD-FMK] |  |  |  |  |  | inhibited |  | inhibition of metacaspase [8]: inhibits
6 | COC(=O)C[C@H](NC(=O)[C@H](C)NC(=O)[C@@H](NC(=O)OCc1ccccc1)C(C)C)C(=O)CF [zVAD-fmk] (Cbz-Val-Ala-Asp(OMe)-CH2F) |  |  |  |  |  | inhibited |  | 

Further lines, with some results ahead:

Row | inhibition of caspase-3 [1] | inhibition of caspase-1 [2] | inhibition of caspase-8 [3] | inhibition of caspase-9 [4] | inhibition of caspase-6 [5] | SMILES | inhibition of metacaspase [6] | effect on apoptosis [7] | other results
7 | inhibit | inhibited | inhibited | inhibited | inhibited | CC(=O)N[C@H](C(=O)N[C@@H](C)C(=O)N[C@@H](CC(=O)O)C(=O)CF)C(C)C [Ac-VAD-FMK] (HELM PEPTIDE1{[ac].V.A.D.[FC[*:1]]}$$$$V2.0) |  |  | 
8 | inhibit | inhibited | inhibited | inhibited | inhibited | COC(=O)CC(NC(=O)OC(C)(C)C)C(=O)CF [Boc D-FMK] |  |  | 
9 | potent inhibitor |  |  |  |  | [Zn+2] [Zn^+2] |  | inhibit apoptosis | 
